Results from US7388072B2, “MAGE peptides presented by HLA class II molecules” (priority 2001, dated 2008).

How the values were obtained:
DR3 = target: T1, DR3 (Homo sapiens, UniProt P01903+P01911, A100K/A102G/A103R/A169T/F55Y/I96L/K41T/L162R/M171V/P40S/Q125H/Q178H/Q39Y/R42S/S66N/T106N/T262R/W38E/Y61H); experiment: HLA-DR peptide binding assay (competition), DR3
T1 construct: endogenous in cells

DRB3 = target: T2, DRB3 (Homo sapiens, UniProt P01903+P79483); experiment: HLA-DR peptide binding assay (competition), DRB3
T2 construct: endogenous in cells

DRB5 = target: T3, DRB5 (Homo sapiens, UniProt P01903+Q30154); experiment: HLA-DR peptide binding assay (competition), DRB5
T3 construct: endogenous in cells

DR1 = target: T4, DR1 (Homo sapiens, UniProt P01903+P01911, A100R/D57E/F55L/F60I/F76Y/I96L/L162R/M171V/P40L/Q125E/R42F/V115G/Y59C); experiment: HLA-DR peptide binding assay (competition with biotinylated peptide on purified HLA-DR molecules), DR1
T4 construct: endogenous in cells

DR11 = experiment: HLA-DR peptide binding assay (competition), DR11; set-up: species or system human
CD4+ T cell clone 3 = experiment: Recognition assay with peptides: IFN-γ production (ELISA) by CD4+ T cell clone 3 co-cultured with peptide-pulsed EBV-B cells; format: cell-based, human; details: for IFN-γ production clone 3: 2 h with 5 μg/ml peptide, overnight co-culture
Procedure: (§1) Recognition assays with peptides. Peptides were synthesized on solid phase using Fmoc for transient NH2-terminal protection and were characterized using mass spectrometry. All peptides were >90% pure, as indicated by analytical HPLC. Lyophilized peptides were dissolved at 5 mg/ml in 10 mM acetic acid and 10% DMSO, and stored at −20° C. EBV-B cells were distributed at 20,000 cells per round-bottomed microwell and incubated for 2 h at 37° C. in the presence of the different peptides, the indicated concentrations representing their concentrations during the incubation step. CD4^+ T lymphocytes (5,000) were added in 100 μl of complete IMDM (Gibco BRL) medium supplemented with IL-2 (25 U/ml). Supernatants were harvested after 20 h of co-culture and IFN-γ production was measured by ELISA. The peptides used in FIG. 6 correspond to the MAGE-1260-275, MAGE-2267-282, MAGE-3267-282, MAGE-4268-283, MAGE-6267-282, MAGE-10292-307, MAGE-11270-285, and MAGE-12267-282 protein sequences.
(§2) We tested for recognition by each of the three clones autologous EBV-B cells pulsed with a set of peptides of 16 amino acids, overlapping by 12 residues and covering the complete MAGE-3 sequence. DDHK2 EBV-B cells were distributed in microwells (2×10^4 cells) and incubated for 2 h with the indicated concentrations of peptides. 5×10^3 cells from each autologous CD4^+ T cell clone were added and the presence of IFN-γ in the supernatant was measured by ELISA after overnight co-culture. The results shown in FIG. 6 represent the average of triplicate co-cultures.

DR15 = target: T5, DR15 (Homo sapiens, UniProt P01903+P01911); experiment: HLA-DR peptide binding assay (competition), DR15
T5 construct: endogenous in cells

DR7 = experiment: HLA-DR peptide binding assay (competition), DR7; set-up: species or system human
CD4+ T cell clone 2 = experiment: Recognition assay with peptides: IFN-γ production (ELISA) by CD4+ T cell clone 2 co-cultured with peptide-pulsed EBV-B cells; format: cell-based, human; details: for IFN-γ production clone 2: 2 h with 5 μg/ml peptide, overnight co-culture
Procedure: as §1, §2

DRB4 = target: T6, DRB4 (Homo sapiens, UniProt P01903+P13762); experiment: HLA-DR peptide binding assay (competition), DRB4
T6 construct: endogenous in cells

DR13 = experiment: HLA-DR peptide binding assay (competition), DR13; set-up: species or system human
DR4 = target: T7, DR4 (Homo sapiens, UniProt P01903+P01911, A100K/A169T/F76Y/I96L/K127E/L162R/M171V/N62H/P40V/Q125Y/R42H/S133A/S149N/S66Y/V115G/V209L/W38E); experiment: HLA-DR peptide binding assay (competition), DR4
T7 construct: endogenous in cells

[1] = ratio lower than 10 = high affinity, higher than 10 = intermediate binder
[2] = EBV-B cell line DDHK2 (DR1 DR15 DR51, DR1 positive)
[3] = EBV-B cell line LB650 (DR7 DR15 DR51 DR53, DR1 negative)
[4] = EBV-B cell line LB831 (DR1 DR7 DR53, DR1 positive)
[5] = EBV-B cell line LB1158 (DR1 DR13 DR52, DR1 positive)
[6] = EBV-B cell line LB1856 (DR15, DR1 negative)
[7] = EBV-B cell line LB1870 (DR15 DR53 DR7, DR1 negative)
[8] = EBV-B cell line LB2095 (DR13 DR15 DR51 DR52, DR1 negative)
[9] = EBV-B cell line LB2138 (DR1 DR13, DR1 positive)
[10] = FIG. 6, set of 16 amino acid peptides overlapping by 12 residues

CC(C)C[C@H](NC(=O)[C@H](C)NC(=O)[C@H](CCCNC(=N)N)NC(=O)[C@@H]1CCCN1C(=O)CNC(=O)[C@H](Cc1c[nH]c2ccccc12)NC(=O)[C@H](CC(C)C)NC(=O)[C@H](Cc1ccccc1)NC(=O)[C@H](CCC(=O)O)NC(=O)[C@H](Cc1ccc(O)cc1)NC(=O)[C@H](CS)NC(=O)[C@H](C)N)C(=O)N[C@H](C(=O)N[C@@H](CCC(=O)O)C(=O)N[C@H](C(=O)N[C@@H](CO)C(=O)O)[C@@H](C)O)C(C)C
binding to purified HLA-DR molecules (in words) (DR3; competition assay): No binding was observed
IC50 (DR3; competition with biotinylated MT 2-16 100 nM, pH 4.5, read-out: IC50 (nM) of MAGE-3267-282): > 10000 nM
binding to purified HLA-DR molecules (in words) (DRB3; competition assay): No binding was observed
IC50 (DRB3; competition with biotinylated LOL 191-210 5 nM, pH 5.5, read-out: IC50 (nM) of MAGE-3267-282): > 10000 nM
Ratios IC50 MAGE-3/IC50 reference (DRB5): 11
binding to purified HLA-DR molecules (in words) (DRB5; DRB5, competition assay): bound
Ratios IC50 MAGE-3/IC50 reference (DR1): 0.2
binding to purified HLA-DR molecules (in words) (DR1; DR1, competition assay): very high affinity
binding to purified HLA-DR molecules (in words) (DR11; competition assay): bound
IC50 (DR11; competition with biotinylated HA 306-318 20 nM, pH 5, ± standard deviation, read-out: IC50 (nM) of MAGE-3267-282): 150 nM
Ratios IC50 MAGE-3/IC50 reference (DR11; [1]): 6
IFN-γ production clone 3 (CD4+ T cell clone 3; [2]): >4,000 pg/ml
IFN-γ production clone 3 (CD4+ T cell clone 3; [3]): 150 pg/mL
IFN-γ production clone 3 (CD4+ T cell clone 3; [4]): 1,371 pg/ml
IFN-γ production clone 3 (CD4+ T cell clone 3; [5]): 1,698 pg/ml
IFN-γ production clone 3 (CD4+ T cell clone 3; [6]): 164 pg/mL
IFN-γ production clone 3 (CD4+ T cell clone 3; [7]): 119 pg/mL
IFN-γ production clone 3 (CD4+ T cell clone 3; [8]): 125 pg/mL
IFN-γ production clone 3 (CD4+ T cell clone 3; [9]): 2,053 pg/ml
most efficiently recognized peptide for clone 3 (CD4+ T cell clone 3; FIG. 6, comparison with shorter peptides): most efficiently recognized peptide
production of IFN-γ by clone 3 stimulated by peptide-pulsed autologous EBV-B cells (CD4+ T cell clone 3; [10]): stimulated the production of IFN-γ
recognition by clone 3 of peptide-loaded autologous EBV-B cells in the presence of anti-HLA-DR, -DP or -DQ antibodies (CD4+ T cell clone 3; data not shown): abolished by an anti-HLA-DR antibody, but not by antibodies against HLA-DP or HLA-DQ
Ratios IC50 MAGE-3/IC50 reference (DR15): 15
binding to purified HLA-DR molecules (in words) (DR15; DR15, competition assay): bound
binding to purified HLA-DR molecules (in words) (DR7; competition assay): bound
IC50 (DR7; competition with biotinylated YKL 10 nM, pH 5, ± standard deviation, read-out: IC50 (nM) of MAGE-3267-282): 1200 nM
Ratios IC50 MAGE-3/IC50 reference (DR7; [1]): 120
IFN-γ production clone 2 (CD4+ T cell clone 2; [2]): >4,000 pg/ml
IFN-γ production clone 2 (CD4+ T cell clone 2; [3]): 160 pg/mL
IFN-γ production clone 2 (CD4+ T cell clone 2; [4]): 1,418 pg/ml
IFN-γ production clone 2 (CD4+ T cell clone 2; [5]): 2,029 pg/ml
IFN-γ production clone 2 (CD4+ T cell clone 2; [6]): 187 pg/mL
IFN-γ production clone 2 (CD4+ T cell clone 2; [7]): 104 pg/mL
IFN-γ production clone 2 (CD4+ T cell clone 2; [8]): 172 pg/mL
IFN-γ production clone 2 (CD4+ T cell clone 2; [9]): 2,046 pg/ml
production of IFN-γ by clone 2 stimulated by peptide-pulsed autologous EBV-B cells (CD4+ T cell clone 2; [10]): stimulated the production of IFN-γ
recognition by clone 2 of peptide-loaded autologous EBV-B cells in the presence of anti-HLA-DR, -DP or -DQ antibodies (CD4+ T cell clone 2; data not shown): abolished by an anti-HLA-DR antibody, but not by antibodies against HLA-DP or HLA-DQ
Ratios IC50 MAGE-3/IC50 reference (DRB4): 70
binding to purified HLA-DR molecules (in words) (DRB4; DRB4, competition assay): bound
binding to purified HLA-DR molecules (in words) (DR13; competition assay): No binding was observed
IC50 (DR13; competition with biotinylated B1 21-36 200 nM, pH 4.5, read-out: IC50 (nM) of MAGE-3267-282): > 10000 nM
Ratios IC50 MAGE-3/IC50 reference (DR4): 18
binding to purified HLA-DR molecules (in words) (DR4; DR4, competition assay): bound
